Molecular target: T1, ADE/POD (anthocyanin degradation enzyme/peroxidase), purified Osmanthus POD
T1 construct: major in-gel activity band about 110 kDa on semi-native PAGE
Assay: guaiacol oxidation, absorbance at […] nm
Assay type: biochemical, Osmanthus fragrans
Conditions: guaiacol and H2O2 as substrates, 50 mM phosphate buffer pH 7.0; partially purified enzyme

Work on `O=C(O)c1cc(O)c(O)c(O)c1` [gallic acid] yielded an IC50 of 35.55 μM GAE.

Reference: PMC6632198, “In planta high levels of hydrolysable tannins inhibit peroxidase mediated anthocyanin degradation and maintain abaxially red leaves of Excoecaria Cochinchinensis” (BMC Plant Biology, 2019)
